Test results from patent publication US20230348415A1, “BISPECIFIC ANTAGONISTS OF RETINOL-BINDING PROTEIN 4 THAT STABILIZE TRANSTHYRETIN TETRAMERS, THEIR PREPARATION, AND USE IN THE TREATMENT OF COMMON AGE-RELATED COMORBIDITIES” (The Trustees of Columbia University in the City of New York, priority 2020, published 2023).
Values after ≈ are worked out from the molar mass of the structure shown.

What was measured:
[1] = Kinetic solubility assay; type: physicochemical; conditions: PBS (pH 7.4)
Description: Kinetic aqueous solubility determination for compound (±)-44 in PBS (pH 7.4) was conducted by Eurofins using UV detection (230 nm). […] In addition, chromatographic purity (%) was defined as the peak area of the principal peak relative to the total integrated peak area in the HPLC chromatogram of the calibration standard. A chromatogram of the calibration standard of each test compound, along with a UV/VIS spectrum with labeled absorbance maxima, was generated.

[2] = Metabolic stability and clearance in cynomolgus monkey liver microsomes; type: in vitro ADME; conditions: 30 minute incubation
Description: The results of metabolic stability determinations for novel compounds and testosterone (positive control) were conducted in the presence of human, rat, mouse, and monkey liver microsomes. Values shown are percent of parent remaining after a 30 minute incubation. All measurements were done in duplicate. Assay results for testosterone were within an acceptable range.
Mixed-gender human liver microsomes (Lot #1710084), male Sprague-Dawley rat liver microsomes (Lot #1610290), male CD-1 mouse liver microsomes (Lot #1710069), and male Cynomolgous liver microsomes (Lot #1510193) were purchased from XenoTech. The reaction mixture, minus NADPH, was prepared as described below. The test article was added into the reaction mixture at a final concentration of 1 μM. The control compound, testosterone, was run simultaneously with the test article in a separate reaction. An aliquot of the reaction mixture (without cofactor) was equilibrated in a shaking water bath at 37° C. for 3 minutes. The reaction was initiated by the addition of cofactor, and the mixture was incubated in a shaking water bath at 37° C. Aliquots (100 μL) were withdrawn at 0, 10, 20, 30, and 60. […] Half-lives were calculated using GraphPad software, fitting to a single-phase exponential decay equation.

[3] = biological target: PPARγ (Homo sapiens (Human), UniProt P37231); experiment: PPARγ agonist activity
[4] = biological target: T1, serum RBP4 (Mus musculus (Mouse), UniProt Q00724); experiment: Serum RBP4 measurement after a single oral dose in mice; type: in vivo
Description: FIG. 5. Pharmacokinetic and pharmacodynamic properties of (±)-44 in mice. (A) Serum RBP4 levels following a single 25 mg/kg oral administration of (±)-44. (B) Blood compound levels following administration of a single oral 5 mg/kg dose of (±)-44. Data represented as the mean±SD. Three mice per treatment group were used in the study.
(§1) Blood samples were collected from a tail vein. Whole blood was drawn into a centrifuge tube and was allowed to clot at room temperature for 30 minutes followed by centrifugation at 2000 g for 15 minutes at […] to collect serum. Aliquots of plasma samples collected in the mouse pharmacokinetic study were analyzed for the RBP4 concentration using the RBP4 (mouse/rat) dual ELISA kit (AdipoGen, San Diego, CA) following the manufacturer's instructions. In adi-hRBP4 transgenic mouse experiments, blood samples were collected from a tail vein. […] Mouse serum RBP4 (produced predominantly in the liver) was measured using the RBP4 (mouse/rat) dual ELISA kit (AdipoGen, San Diego, CA; catalog number AG-45A-0012YTP-KI01)

[5] = biological target: T1, serum RBP4; experiment: Serum RBP4 after long-term oral dosing in Abca4−/− mice; type: in vivo; conditions: 25 mg/kg daily in chow
Description: (§2) FIG. 7. Effect of the long-term oral (±)-44 administration in Abca4^−/− mice on serum RBP4 levels. Serum RBP4 levels were measured in vehicle-treated Abca4^−/− mice (squares) and (±)-44-treated Abca4-mice (triangles) at the indicated time points. […] Error bars show S.D. Each data point on the graph represents a serum RBP4 concentration from an individual animal.
Blood samples were collected from a tail vein. Whole blood was drawn into a centrifuge tube and was allowed to clot at room temperature for 30 minutes followed by centrifugation at 2000 g for 15 minutes at […] to collect serum. Aliquots of plasma samples collected in the mouse pharmacokinetic study were analyzed for the RBP4 concentration using the RBP4 (mouse/rat) dual ELISA kit (AdipoGen, San Diego, CA) following the manufacturer's instructions. In adi-hRBP4 transgenic mouse experiments, blood samples were collected from a tail vein. Whole blood was drawn into a centrifuge tube and was allowed to clot at room temperature for 30 min followed by centrifugation at 2000 g for 15 min at +4° C. to collect serum. Mouse serum RBP4 (produced predominantly in the liver) was measured using the RBP4 (mouse/rat) dual ELISA kit (AdipoGen, San Diego, CA; catalog number AG-45A-0012YTP-KI01)
(±)-44 was formulated into a Picolab 5053 chow to ensure a daily dosing of 25 mg/kg of (±)-44. […]

[6] = biological target: T1, serum RBP4; experiment: Serum RBP4 after long-term oral dosing in Abca4−/−/Rdh8−/− mice; type: in vivo; conditions: 25 mg/kg daily in chow
Description: as §2, with “9.” for “7.”, “Abca4^−/−/Rdh8^−/−” for “Abca4^−/−”, “Abca4^−/−/Rdh8^−/− mice” for “Abca4-mice”
as §1
(±)-44 was formulated into a Picolab 5053 chow to ensure a daily dosing of 25 mg/kg of (±)-44. […] Following the 10 weeks of dosing, the eyecups of treated and untreated Abca4^−/−/Rdh8^−/− mice as well as the eyecups of the reference wild type mice were collected for the quantitative A2E analysis.

Chain of PPARγ (P37231 whole entry, species assumed): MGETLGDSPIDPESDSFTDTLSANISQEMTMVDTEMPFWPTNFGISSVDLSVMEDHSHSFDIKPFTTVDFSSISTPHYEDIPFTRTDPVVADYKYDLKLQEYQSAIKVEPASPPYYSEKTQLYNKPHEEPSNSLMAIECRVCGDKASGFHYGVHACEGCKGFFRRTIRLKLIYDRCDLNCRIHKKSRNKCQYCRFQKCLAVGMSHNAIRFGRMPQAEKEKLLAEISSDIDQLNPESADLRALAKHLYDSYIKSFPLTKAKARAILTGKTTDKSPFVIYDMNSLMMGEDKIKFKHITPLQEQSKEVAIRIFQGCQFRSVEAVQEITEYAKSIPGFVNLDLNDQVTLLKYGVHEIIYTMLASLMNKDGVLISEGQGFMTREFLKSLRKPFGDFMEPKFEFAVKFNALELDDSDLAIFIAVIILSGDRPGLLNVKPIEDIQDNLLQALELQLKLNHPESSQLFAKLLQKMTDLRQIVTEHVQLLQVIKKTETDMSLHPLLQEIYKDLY

Cc1cc(C(=O)O)nc(N2CCC(COc3ccccc3C(F)(F)F)C2)n1 (racemic) [Compound (±)-44, (±)-6-Methyl-2-(3-((2-(trifluoromethyl)phenoxy)methyl)pyrrolidin-1-yl)pyrimidine-4-carboxylic Acid]
solubility kinetic [1]: 187.4 µM (≈ 71.5 µg/mL)
Liver Microsomal Stability (% remaining at 30 min), cyno LM [2]: 103%
IC50 [3]: > 100 µM
PPARγ agonist activity [3]: devoid of PPARγ agonist activity
effect on serum TTR levels ([4]; compound dosing in mice, data not shown): no effect
maximum reduction in serum RBP4 ([4]; single 25 mg/kg oral dose, 6 h after dose): 81%
reduction in serum RBP4 at the 24 h time point ([4]; single 25 mg/kg oral dose, 24 h): 64%
serum RBP4 reduction compared to untreated Abca4−/− mice ([5]; week 12): 82%
serum RBP4 reduction compared with baseline ([5]; week 12, Abca4−/− mice): 79%
serum RBP4 reduction compared to untreated Abca4−/−/Rdh8−/− mice ([6]; 10 weeks): 84%
serum RBP4 reduction compared with baseline ([6]; week 10, Abca4−/−/Rdh8−/− mice): 76%
